Results as given in ChEMBL document CHEMBL5543061, “Recent advances of antitumor leading compound Erianin: Mechanisms of action and structural modification” (Eur J Med Chem, 2023).

Tests used:
[1] = tested on: HCT-116; test: Growth inhibition of human HCT-116 cells measured for 48 hrs by SRB assay; assay type: functional
[2] = tested on: HCT-116; test: Growth inhibition of human HCT-116 cells; assay type: functional
[3] = tested on: HCT-116; test: Cytotoxicity against human HCT-116 cells assessed as reduction in cell viability incubated for 72 hrs by MTS assay; assay type: functional, cell-based; settings: HCT-116, 72 h
[4] = tested on: A2780; test: Cytotoxicity against human A2780 cells assessed as reduction in cell viability incubated for 72 hrs by MTS assay; assay type: functional, cell-based; settings: A2780, 72 h
[5] = tested on: JIMT-1; test: Antiproliferative activity against human JIMT-1 cells assessed as reduction in cell viability incubated for 72 hrs by MTS assay; assay type: functional, cell-based; settings: JIMT-1, 72 h
[6] = tested on: A2780cisR; test: Antiproliferative activity against human cisplatin-resistant A2780 cells assessed as reduction in cell viability incubated for 72 hrs by MTS assay; assay type: functional, cell-based
[7] = tested on: K562; test: Cytotoxicity against human K562 cells assessed as reduction in cell viability incubated for 72 hrs by MTS assay; assay type: functional, cell-based; settings: K562, 72 h
[8] = tested on: MIA PaCa-2; test: Cytotoxicity against human MIA PaCa-2 cells assessed as reduction in cell viability incubated for 72 hrs by MTS assay; assay type: functional, cell-based; settings: MIA PaCa-2, 72 h
[9] = tested on: HeLa; test: Cytotoxicity against human HeLa cells assessed as reduction in cell growth incubated for 72 hrs by MTT assay; assay type: functional, cell-based
[10] = tested on: HepG2; test: Antiproliferative activity against human HepG2 cells assessed as inhibition of cell growth relative to control; assay type: functional; parameters: scale not given: the % may be the effect or the level left
[11] = tested on: HepG2; test: Antiproliferative activity against human HepG2 cells assessed as reduction in cell growth; assay type: functional, cell-based
[12] = tested on: HL-60; test: Cytotoxicity against human HL-60 cells assessed as reduction in cell viability incubated for 48 hrs by MTT assay; assay type: functional, cell-based; settings: HL-60, 48 h
[13] = tested on: HeLa; test: Antiproliferative activity against human HeLa cells assessed as reduction in cell viability by MTT assay; assay type: functional, cell-based
[14] = tested on: HeLa; test: Cytotoxicity against human HeLa cells assessed as reduction in cell viability after 72 hrs by MTS assay; assay type: functional, cell-based
[15] = tested on: HepG2; test: Cytotoxicity against human HepG2 cells; assay type: functional, cell-based
[16] = tested on: HeLa; test: Antiproliferative activity against human HeLa cells assessed cell growth reduction incubated for 48 hrs by MTT assay; assay type: functional, cell-based
[17] = tested on: HepG2; test: Anticancer activity against human HepG2 cells assessed as reduction in cell viability; assay type: functional, cell-based
[18] = tested on: SW480; test: Cytotoxicity against human SW480 cells assessed as reduction in cell viability incubated for 72 hrs by celltiter glo assay; assay type: functional, cell-based; settings: SW480, 72 h

For `COc1ccc(Cc2cc(OC)c(OC)c(OC)c2)cc1O`, the GI50 [1] was 6000 nM.

With `COc1cc(C(C)c2ccc3c(ccn3C)c2)cc(OC)c1OC` (stereo not drawn) the GI50 [2] was 29 nM.

`COc1ccc(C(c2cc(OC)c(OC)c(OC)c2)C(F)F)cc1O` (stereo not drawn) gave a GI50 [2] of 30 nM and a GI50 [1] of 30 nM.

`CN(c1ccc2c(ccn2C)c1)c1cc(C(F)(F)F)nc2ccccc12` gave an IC50 [3] of 3 nM.

In the case of `Cc1cc(N(C)c2ccc3c(c2)c2ccccc2n3C)c2ccccc2n1`, the IC50 [4] is reported as 0.28 nM, the IC50 [5] is reported as 0.28 nM and the IC50 [6] is reported as 0.24 nM. The IC50 [7] was 0.28 nM and the IC50 [8] was 0.28 nM.

Work on `CN(c1ccc2c(c1)c1ccccc1n2C)c1cc(Cl)nc2ccccc12` yielded an IC50 [3] of 16 nM.

With `COc1ccc(N(C)c2cc(C)nc3ccccc23)nc1N` the IC50 [3] was 1 nM.

Molecule `CN(c1ccc2c(c1)c1ccccc1n2C)c1nc(Cl)nc2ccccc12` has an IC50 [3] of 1 nM.

`Cc1nc(N(C)c2ccc3c(c2)c2ccccc2n3C)c2ccccc2n1` was tested, and the IC50 [3] was 2 nM.

`COc1cccc2c(N(C)c3ccc4c(c3)c3ccccc3n4C)cc(C)nc12` gave an IC50 [3] of 21 nM.

Work on `Cc1cc(N(C)c2ccc3c(n2)OCCO3)c2ccccc2n1` yielded an IC50 [6] of 0.28 nM and an IC50 [3] of 20 nM.

For `COc1cc(CCc2ccc(OC(F)F)c(OP(=O)(O)O)c2)cc(OC)c1OC`, the IC50 [9] was 110 nM.

`COc1ccc(C(C)c2cc(OC)c(OC)c(OC)c2)nc1` (stereo not drawn) gave a GI50 [2] of 60 nM.

For `COc1cc(CCc2ccc(OCCF)c(O)c2)cc(OC)c1OC`, the Activity [10] was 80.94% and the IC50 [11] was 72.8 nM.

In the case of `COc1cc(CCc2ccc(OC(=O)CCn3cc(F)c(=O)[nH]c3=O)c(O)c2)cc(OC)c1OC`, the IC50 [11] is reported as > 500 nM.

`COc1ccc(CCc2cc(OC)c(OC)c(OC)c2)cc1OC(=O)CCC(=O)Oc1cc(CCc2cc(OC)c(OC)c(OC)c2)ccc1OC` was tested, and the IC50 [12] was 82 nM.

In the case of `CCOc1cc(C(C)c2ccc(OC)c(N)c2)ccc1OC` (stereo not drawn), the GI50 [1] is reported as 6000 nM.

In the case of `COc1ccc(CCc2cc(OC)c(OC)c(OC)c2)cc1N`, the IC50 [13] is reported as 160 nM.

In the case of `COc1ccc(CCc2cc(OC)c(OC)c(OC)c2)cc1OC(=O)CCCCCNC(=O)CCCC[C@@H]1SC[C@@H]2NC(=O)N[C@@H]21`, the IC50 [14] is reported as 26 nM.

`COc1ccc(CCc2cc(OC)c(OC)c(OC)c2)cc1OC(=O)c1cncc(Cl)c1` was tested, and the IC50 [15] was 32.4 nM.

`COc1cc(CCc2ccc(C(C)(F)F)cc2NC(=O)CN)cc(OC)c1OC` gave an IC50 [16] of 50 nM.

Work on `COc1ccc(C(C)c2cc(C)c(OC)c(OC)c2)cc1OP(=O)(O)O` (stereo not drawn) yielded a GI50 [2] of 100 nM.

For `COc1ccc(CCc2cc(OC)c(OC)c(OC)c2)cc1OC(=O)c1c[nH]c2ccccc12`, the IC50 [17] was > 500 nM.

Work on `COc1cc(CCc2ccc(OC(F)F)c(O)c2)cc(OC)c1OC` yielded an IC50 [18] of 180 nM.

`COc1ccc(CCc2cc(OC)c(OC)c(OC)c2)cc1OC(=O)c1ccsc1` was tested, and the IC50 [17] was > 500 nM.

For `COc1cc(OC)cc(C(C)c2ccc(OC)c(N)c2)c1` (stereo not drawn), the GI50 [1] was 300 nM.

With `COc1ccc(CCc2cc(OC)c(OC)c(OC)c2)cc1OC(=O)CCC(=O)O` the IC50 [12] was 48 nM.

For `COc1ccc(CCc2cc(OC)c(OC)c(OC)c2)cc1OC(=O)c1cncnc1`, the IC50 [17] was > 500 nM.

`CCOc1ccc(CCc2cc(OC)c(OC)c(OC)c2)cc1N` was tested, and the IC50 [13] was 200 nM.

For `CCOc1ccc(CCc2cc(OC)c(OC)c(OC)c2)cc1O`, the IC50 [13] was 110 nM.

With `COc1ccc(CCc2cc(OC)c(OC)c(OC)c2)cc1OC(=O)c1cnc(C)nc1` the IC50 [17] was > 500 nM.

For `COc1cc(CCc2ccc(OC(C)(F)F)cc2N)cc(OC)c1OC`, the IC50 [16] was 460 nM.

With `COc1ccc(CCc2cc(OC)c(OC)c(OC)c2)cc1OC(=O)c1cccnc1` the IC50 [17] was > 500 nM.

`CN(c1ccc2c(ccn2C)n1)c1nc(Cl)nc2ccccc12` was tested, and the IC50 [4] was 0.24 nM, the IC50 [5] was 0.24 nM and the IC50 [7] was 0.24 nM. It also gave an IC50 [8] of 0.24 nM.

`COc1ccc(C(C)c2cc(OC)c(OC)c(OC)c2)cc1N` (stereo not drawn) was tested, and the GI50 [2] was 60 nM and the GI50 [1] was 28 nM.

In the case of `COc1ccc(C(CC#N)c2cc(OC)c(OC)c(OC)c2)cc1O` (stereo not drawn), the GI50 [2] is reported as 50 nM and the GI50 [1] is reported as 50 nM.

With `COc1ccc(CCc2cc(OC)c(OC)c(OC)c2)cc1OC(=O)c1cscn1` the IC50 [17] was > 500 nM.

In the case of `COc1cc(CCc2ccc(OC(C)(F)F)cc2[N+](=O)[O-])cc(OC)c1OC`, the IC50 [16] is reported as 130 nM.

`COc1cc(CCc2ccc(OC(C)(F)F)cc2)cc(OC)c1OC` showed an IC50 [16] of 110 nM.

`CCCOc1ccc(CCc2cc(OC)c(OC)c(OC)c2)cc1O` was tested, and the IC50 [11] was > 2000 nM.

Molecule `COc1cc(CCc2ccc(OC(F)F)c(NC(=O)CN)c2)cc(OC)c1OC` has an IC50 [9] of 70 nM.

`COc1ccc(CCc2cc(OC)c(OC)c(OC)c2)cc1OC(=O)c1ccoc1` was tested, and the IC50 [17] was > 500 nM.

`COc1ccc(CCc2cc(OC)c(OC)c(OC)c2)cc1OC(=O)c1ccnnc1` was tested, and the IC50 [17] was > 500 nM.

Work on `COc1ccc(CCc2cc(OC)c(OC)c(OC)c2)cc1OC(=O)c1cncc(Br)c1` yielded an IC50 [15] of 13.5 nM.

In the case of `COc1ccc(CCc2cc(OC)c(OC)c(OC)c2)cc1OC(=O)CCCC[C@H]1SC[C@H]2NC(=O)N[C@H]21`, the IC50 [14] is reported as 494 nM.

With `COc1ccc(/C=C\c2cc(OC)c(OC)c(OC)c2)cc1O` [COMBRETASTATIN A4] the IC50 [18] was 270 nM.
